Assays:
gastric ulceration = assay: Omeprazole treatment of study dogs with NSAID-induced gastric ulceration; assay type: in vivo, dog; conditions: 0.5 to 1.0 mg/kg twice daily for 3 weeks
H-2 receptors = H-2 receptors (Homo sapiens, UniProt P25021); conditions: human subjects, administered intravenously; cited from earlier work
gastric ulcers = conditions: foals; ulcers associated with intravenous high-dose NSAIDs; cited from earlier work
[1] = Plasma lactulose after oral lactulose solution in canine NSAID-induced gastric ulceration model (ion chromatography); assay type: in vivo, dog; conditions: for concentration at 10 min / concentration at 20 min / concentration at 30 min / concentration at 60 min: dog, plasma, po; for concentration at 20 min: 20 min after 0.6-0.7 g/kg PO; for concentration at 30 min: 30 min after 0.6-0.7 g/kg PO; for concentration at 60 min: 60 min after 0.6-0.7 g/kg PO
Method: A model of canine gastric ulceration was developed using a combination of orally administered nonsteroidal anti-inflammatory drugs (NSAIDs) at doses appropriate to induce ulceration without concomitant renal or hepatic dysfunction. Healthy laboratory dogs (14.0 to 16.7 kg) were screened to exclude individuals with clinically silent disorders, including gastrointestinal disease. Under the GCP study protocol, each dog was administered 50 ml of a 20% w/v lactulose solution orally (0.6-0.7 g/kg lactulose PO) following a 24-h fast at baseline and following a period of ulcer induction. On each occasion, peripheral venous blood was drawn from each dog into 1.3-ml Sarstedt blood tubes containing lithium heparin as an anticoagulant at 10, 20, 30 and 60 minutes following bolus administration of the lactulose solution. The Sarstedt tube product number was 41.1393.005. Blood samples were centrifuged for 15 minutes at 3000 rpm, before decanting plasma into plain tubes; plasma was stored at −80° C. until analysis. Prior to lactulose administration, endoscopy was performed on each dog, and the presence and extent of gastric ulceration were assessed by a blinded specialist veterinary gastroenterologist. Following confirmation of the presence of ulceration, NSAID administration was discontinued and post ulcer induction lactulose administration and plasma collection were performed. Frozen plasma samples were transported under GMP conditions at −80° C. to an analytical facility. Following thawing, the samples were analysed for lactulose concentration using an ion chromatography method previously developed using blank plasma samples spiked with known concentrations of lactulose. [table] Sample preparation for Ion Chromatography analysis: 200 μL aliquots of liquid from each of the plasma samples were diluted to 1000 μL with acetonitrile. The samples were vortexed thoroughly, followed by centrifugation at 15000 rpm for 10 minutes. The supernatants were analysed directly by ion chromatography. Analysis was performed in duplicate. Calibration Curve: Calibration curves were prepared in the blank plasma sample. Briefly, plasma samples were spiked with varying concentrations of lactulose and were then diluted with acetonitrile to the required final concentration range. The samples were then processed as described above before analysis by ion chromatography. Samples were analysed in duplicate. Linearity was established for plasma lactulose concentrations in the range 5 to 250 μM.

[2] = Electrochemical dual-enzyme (β-Gal/GalOx) biosensor quantification of lactulose in canine plasma sample by amperometry; assay type: in vivo; conditions: dog, oral, canine plasma sample CAN 84049 D6 t60, standard additions calibration, read-out: lactulose concentration in the original plasma sample
Description: An electrochemical biosensor for the indirect detection of lactulose in buffer and plasma samples used an electrocatalytic surface as the working electrode which was modified with a dual enzyme system comprising β-galactosidase (β-Gal) and galactose oxidase (GalOx). The electrochemical biosensor comprised a 3-electrode system of a working electrode (the dual enzyme-modified Pt electrode), an Ag/AgCl reference electrode, and a Pt wire as auxiliary electrode.
The enzymes were immobilised on the surface of the working electrode using a cross-linker. A 2 mm diameter Pt disk was used as the electrocatalytic surface for the working electrode. […]
The three electrodes were immersed in 2 mL of PBS solution 0.1 M pH 7.3 at 35° C. to comprise the electrochemical cell and an oxidative potential of +600 mV was applied between the working and reference electrodes for quantification of lactulose in a canine plasma sample by amperometry, as illustrated in FIG. 5. […]
Following this 200 μL of canine plasma (CAN 84049 D6 t60) was added to the cell and the current response was monitored for a period of 400 s.
Three sequential additions of a volume of 1 mM Lactulose standard (V1=75 μL; V2=80 μL; V3=85 μL) were then added to the cell and the current response was monitored for 400 s after each addition. […]

[3] = ulceration Moderate to severe (n = 4)

Chain of H-2 receptors (P25021 whole entry): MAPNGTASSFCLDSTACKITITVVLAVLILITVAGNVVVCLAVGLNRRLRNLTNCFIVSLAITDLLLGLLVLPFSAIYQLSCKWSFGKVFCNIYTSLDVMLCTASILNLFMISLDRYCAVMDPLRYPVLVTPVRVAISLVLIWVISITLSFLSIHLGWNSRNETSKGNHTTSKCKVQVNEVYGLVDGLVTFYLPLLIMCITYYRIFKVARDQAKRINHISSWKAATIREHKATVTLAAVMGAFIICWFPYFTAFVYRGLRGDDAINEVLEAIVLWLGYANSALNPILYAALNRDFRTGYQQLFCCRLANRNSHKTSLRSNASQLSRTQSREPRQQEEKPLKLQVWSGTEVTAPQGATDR

With `COc1ccc2[nH]c([S+]([O-])Cc3ncc(C)c(OC)c3C)nc2c1` (centres unmarked) [omeprazole] the “time to resolution of laboratory evidence of gastric ulceration (anemia, inflammatory leucogram, hypoalbuminaemia)” value (gastric ulceration) was at most 3 weeks.
In the case of `NC(N)=Nc1nc(CSCCC(N)=NS(N)(=O)=O)cs1` [famotidine], the “time to occurrence of tolerance” value (H-2 receptors) is listed as 12 to 72 h.
For sucralfate, the “effect on gastric ulcers” value (gastric ulcers) is listed as “protective effect”.
`OC[C@H]1O[C@@H](O[C@@H]2[C@@H](CO)OC(O)(CO)[C@H]2O)[C@H](O)[C@@H](O)[C@H]1O` (mixture of isomers) [Lactulose, lactulose] gave a concentration at 10 min ([1]; 10 min after 0.6-0.7 g/kg PO (50 ml 20% w/v), endoscopic grade of gastric ulceration Absent (n = 8)) of 24.9 µM, a concentration at 10 min ([1]; 10 min after 0.6-0.7 g/kg PO, ulceration Mild (n = 4)) of 44.6 µM and a concentration at 10 min ([1]; 10 min after 0.6-0.7 g/kg PO, ulceration Moderate to severe (n = 4)) of 60.9 µM. For the same compound, the concentration at 20 min ([1]; ulceration Absent (n = 8)) was 39.1 µM, the concentration at 20 min ([1]; ulceration Mild (n = 4)) was 68.7 µM and the concentration at 20 min [1, 3] was 94.3 µM. For the same compound, the concentration at 30 min ([1]; ulceration Absent (n = 8)) was 46 µM, the concentration at 30 min ([1]; ulceration Mild (n = 4)) was 88.2 µM and the concentration at 30 min [1, 3] was 144 µM. The concentration at 60 min ([1]; ulceration Absent (n = 8)) was 61.1 µM, the concentration at 60 min ([1]; ulceration Mild (n = 4)) was 110 µM and the concentration at 60 min [1, 3] was 184 µM. The “rate and extent of systemic lactulose absorption” value ([1]; following ulcer induction versus baseline, each dog) was “increased significantly” and the concentration at 60 min [2] was 275 to 400 µM.

Reference: patent US20230108730A1, “BIENZYMATIC BIOSENSOR FOR THE DETECTION OF LACTULOSE IN BLOOD” (TRIVIUMVET DESIGNATED ACTIVITY COMPANY, priority 2020, published 2023)
